Tests used:
Type in all cases: biochemical
KDM4A (JMJD2A) = target: T1, KDM4A (JMJD2A) (Homo sapiens, UniProt O75164); assay: Histone lysine demethylase AlphaLISA assay, KDM4A; conditions: read-out: KDM4A HDME Inhibition IC50
T1 construct: 1-350; purchased BPS Bioscience, US; host or cells: E. coli
T1 sequence (O75164 1-350): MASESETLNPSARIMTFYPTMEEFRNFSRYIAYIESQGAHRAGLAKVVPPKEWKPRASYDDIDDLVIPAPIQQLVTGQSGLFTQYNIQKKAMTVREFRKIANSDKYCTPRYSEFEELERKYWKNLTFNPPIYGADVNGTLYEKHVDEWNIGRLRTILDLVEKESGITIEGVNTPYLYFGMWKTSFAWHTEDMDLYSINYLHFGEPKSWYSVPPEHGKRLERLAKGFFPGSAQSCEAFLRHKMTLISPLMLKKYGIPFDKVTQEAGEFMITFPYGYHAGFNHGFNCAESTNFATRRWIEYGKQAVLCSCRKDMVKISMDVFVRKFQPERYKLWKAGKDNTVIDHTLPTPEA
Method in brief: (§1)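 Steps: enzyme equilibrated 10 min in buffer; compounds in 3% DMSO solution added, 10 min; substrate mix added (peptide, 25 μM L-Asc, 10 μM α-KG), room temperature; acceptor beads, then streptavidin donor beads, dark incubations; plate read.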

KDM4C (JMJD2C) = target: T2, KDM4C (JMJD2C) (Homo sapiens, UniProt Q9H3R0); assay: Histone lysine demethylase AlphaLISA assay, KDM4C; conditions: read-out: KDM4C HDME Inhibition IC50
T2 sequence (Q9H3R0 1-349): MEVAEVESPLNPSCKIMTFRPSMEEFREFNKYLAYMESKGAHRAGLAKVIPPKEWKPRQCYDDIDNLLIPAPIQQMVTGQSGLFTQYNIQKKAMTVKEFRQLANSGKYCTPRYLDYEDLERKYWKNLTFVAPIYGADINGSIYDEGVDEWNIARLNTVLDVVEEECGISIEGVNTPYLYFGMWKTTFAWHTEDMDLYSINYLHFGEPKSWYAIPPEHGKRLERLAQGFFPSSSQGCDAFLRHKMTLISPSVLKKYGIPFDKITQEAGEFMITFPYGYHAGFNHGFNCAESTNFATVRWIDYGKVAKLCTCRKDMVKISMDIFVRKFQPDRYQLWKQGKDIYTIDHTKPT
Method in brief: as §1

KDM3A (JMJD1A) = target: T3, KDM3A (JMJD1A) (Homo sapiens, UniProt Q9Y4C1); assay: Histone lysine demethylase AlphaLISA assay, KDM3A; conditions: read-out: KDM3 A HDME Inhibition IC50
T3 construct: 2-end; purchased BPS Bioscience, US; host or cells: Bac (baculovirus system)
T3 sequence (Q9Y4C1 2-1321 limits assumed): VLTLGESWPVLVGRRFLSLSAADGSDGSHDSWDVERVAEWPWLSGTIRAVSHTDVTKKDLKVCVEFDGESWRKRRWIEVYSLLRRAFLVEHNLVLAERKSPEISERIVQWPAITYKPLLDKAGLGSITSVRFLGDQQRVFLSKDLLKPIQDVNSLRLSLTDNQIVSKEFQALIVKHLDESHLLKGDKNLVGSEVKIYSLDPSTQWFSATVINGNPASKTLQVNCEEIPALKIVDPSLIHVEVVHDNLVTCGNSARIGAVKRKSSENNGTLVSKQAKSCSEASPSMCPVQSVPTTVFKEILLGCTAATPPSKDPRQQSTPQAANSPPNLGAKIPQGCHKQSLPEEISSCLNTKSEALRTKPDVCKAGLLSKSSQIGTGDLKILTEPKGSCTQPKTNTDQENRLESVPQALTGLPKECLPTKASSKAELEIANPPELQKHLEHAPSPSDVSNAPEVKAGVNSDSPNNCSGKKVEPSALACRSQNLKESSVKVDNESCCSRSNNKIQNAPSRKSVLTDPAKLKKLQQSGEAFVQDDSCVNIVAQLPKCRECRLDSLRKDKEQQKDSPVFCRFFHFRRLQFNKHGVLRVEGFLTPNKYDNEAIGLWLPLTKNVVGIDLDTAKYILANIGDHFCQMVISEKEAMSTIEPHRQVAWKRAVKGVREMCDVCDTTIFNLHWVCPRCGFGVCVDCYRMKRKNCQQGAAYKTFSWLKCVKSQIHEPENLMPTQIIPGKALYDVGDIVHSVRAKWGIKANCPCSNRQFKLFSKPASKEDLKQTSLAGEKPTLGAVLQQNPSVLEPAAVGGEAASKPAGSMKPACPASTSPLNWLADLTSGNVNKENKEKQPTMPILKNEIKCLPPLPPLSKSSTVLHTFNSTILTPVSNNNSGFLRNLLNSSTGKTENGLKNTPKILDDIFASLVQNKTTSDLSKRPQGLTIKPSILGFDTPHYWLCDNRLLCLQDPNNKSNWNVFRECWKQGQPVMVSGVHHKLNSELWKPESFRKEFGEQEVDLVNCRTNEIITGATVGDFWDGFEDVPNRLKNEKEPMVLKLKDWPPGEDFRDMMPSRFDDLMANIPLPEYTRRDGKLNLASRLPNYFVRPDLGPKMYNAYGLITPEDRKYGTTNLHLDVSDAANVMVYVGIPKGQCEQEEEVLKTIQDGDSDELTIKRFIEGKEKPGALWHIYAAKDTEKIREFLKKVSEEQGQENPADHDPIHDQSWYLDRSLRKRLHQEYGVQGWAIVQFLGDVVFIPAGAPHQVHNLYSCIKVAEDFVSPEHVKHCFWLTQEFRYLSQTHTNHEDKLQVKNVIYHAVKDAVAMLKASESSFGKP
Method in brief: as §1

KDM5C (JARID1C) = target: T4, KDM5C (JARID1C) (Homo sapiens, UniProt P41229); assay: Histone lysine demethylase AlphaLISA assay, KDM5C; conditions: read-out: KDM5C HDME Inhibition IC50
T4 construct: 2-1560; purchased BPS; host or cells: Bac (baculovirus system)
Method in brief: as §1

T4 sequence (P41229 2-1560): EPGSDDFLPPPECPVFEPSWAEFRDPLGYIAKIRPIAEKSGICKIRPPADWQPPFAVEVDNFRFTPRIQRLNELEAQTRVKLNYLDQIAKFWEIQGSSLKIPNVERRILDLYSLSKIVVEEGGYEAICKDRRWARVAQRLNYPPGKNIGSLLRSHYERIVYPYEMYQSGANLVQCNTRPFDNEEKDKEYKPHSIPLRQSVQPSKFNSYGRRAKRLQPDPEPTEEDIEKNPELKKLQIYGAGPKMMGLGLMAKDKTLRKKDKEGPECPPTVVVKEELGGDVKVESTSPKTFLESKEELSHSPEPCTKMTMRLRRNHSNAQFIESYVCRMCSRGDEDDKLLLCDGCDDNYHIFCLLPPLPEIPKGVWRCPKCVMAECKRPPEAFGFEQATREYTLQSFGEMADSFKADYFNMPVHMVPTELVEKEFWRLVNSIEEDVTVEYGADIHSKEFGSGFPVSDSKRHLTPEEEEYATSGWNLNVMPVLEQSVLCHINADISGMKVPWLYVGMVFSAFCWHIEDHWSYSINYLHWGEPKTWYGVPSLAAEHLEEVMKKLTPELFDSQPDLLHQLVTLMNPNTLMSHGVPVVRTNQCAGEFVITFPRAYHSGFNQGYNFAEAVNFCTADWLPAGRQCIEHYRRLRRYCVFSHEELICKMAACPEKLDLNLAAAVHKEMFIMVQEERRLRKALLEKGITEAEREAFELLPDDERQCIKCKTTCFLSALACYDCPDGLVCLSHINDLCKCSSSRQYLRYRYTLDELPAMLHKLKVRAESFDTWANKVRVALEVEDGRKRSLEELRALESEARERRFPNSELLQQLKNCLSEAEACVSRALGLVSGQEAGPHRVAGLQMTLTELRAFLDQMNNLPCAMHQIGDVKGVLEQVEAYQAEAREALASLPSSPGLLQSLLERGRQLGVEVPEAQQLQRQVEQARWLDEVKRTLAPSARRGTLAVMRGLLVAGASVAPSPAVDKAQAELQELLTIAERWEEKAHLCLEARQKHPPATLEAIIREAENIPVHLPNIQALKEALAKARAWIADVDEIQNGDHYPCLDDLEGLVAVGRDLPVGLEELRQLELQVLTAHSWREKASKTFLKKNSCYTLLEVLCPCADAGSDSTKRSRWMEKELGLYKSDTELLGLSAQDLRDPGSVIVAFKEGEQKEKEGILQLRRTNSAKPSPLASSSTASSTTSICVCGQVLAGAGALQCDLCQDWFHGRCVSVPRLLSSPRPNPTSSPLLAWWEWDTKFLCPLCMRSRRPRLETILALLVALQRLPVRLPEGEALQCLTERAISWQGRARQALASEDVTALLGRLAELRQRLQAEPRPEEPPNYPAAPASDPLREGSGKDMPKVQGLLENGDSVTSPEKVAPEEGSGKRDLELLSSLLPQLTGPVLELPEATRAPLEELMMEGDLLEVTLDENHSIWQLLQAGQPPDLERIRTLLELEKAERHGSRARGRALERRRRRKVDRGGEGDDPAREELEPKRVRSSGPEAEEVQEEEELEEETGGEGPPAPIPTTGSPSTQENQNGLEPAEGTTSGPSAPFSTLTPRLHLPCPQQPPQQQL

IC50 (KDM4A (JMJD2A)) [nM] | IC50 (KDM4C (JMJD2C)) [nM] | IC50 (KDM3A (JMJD1A)) [nM] | IC50 (KDM5C (JARID1C)) [nM] | Structure (SMILES)
> 2500 | 250 to 2500 | > 2500 | < 250 | CCCCCCCC/N=C/c1ccnc(CNCC(=O)N(CC)CC)c1 [Compound 58, N,N-diethyl-2-[({4-[(octylimino)methyl]-pyridin-2-yl}methyl)amino]-acetamide]
> 2500 | > 2500 | > 2500 | < 250 | C(=N/C1CC1)/c1ccnc(CNCCCN2CCCC2)c1 [Compound 42, N-{[2-({[3-(pyrrolidin-1-yl)propyl]amino}-methyl)pyridin-4-yl]methylidene}-cyclopropanamine]
> 2500 | 250 to 2500 | > 2500 | < 250 | CN(C)CCCNCc1cc(/C=N/CCN(C)C)ccn1 [Compound 38, ({4-[{[2-(dimethylamino)ethyl]-imino}methyl]pyridin-2-yl}methyl)[3-(dimethylamino)-propyl]amine]
250 to 2500 | 250 to 2500 | > 2500 | < 250 | CN(CCCn1cccn1)C(=O)CNCc1cc(/C=N/C2CC2)ccn1 [Compound 52, 2-[({4-[N-cyclopropyl-carboximidoyl]-pyridin-2-yl}methyl)amino]-N-methyl-N-[3-(1H-pyrazol-1-yl)propyl]acetamide]
